According to article PMC7162534 (ACS nano, 2020):
Where two headings read alike, the source gives them in different places.

Columns and labels:
[1] = molecular target: maltose-binding protein (MBP) (Escherichia coli, UniProt P0AEX9); parameters: species or system E. coli; details: for frequency of state 1 / frequency of state 2 / frequency of state 3: 1 μM maltose; for current signal of trapped MBP on addition of the sugar: added to the cis chamber
[2] = cited from earlier work
MBP = MBP (Escherichia coli, UniProt P0AEX9); details: read-out: Kd, previously determined value; cited from earlier work
[3] = assumption that state 3 represents MBP bound to an aldehyde intermediate
[4] = 10 μM sodium phosphate, before depletion of α-maltose
[5] = after depletion of α-maltose by 0.25 unit maltose phosphorylase
[6] = in the presence of ligand, −80 mV
[7] = state 1, β anomer, −80 mV, pH 7.5
[8] = state 2, α anomer, −80 mV, pH 7.5
[9] = state 3, β anomer (second binding mode), −80 mV, pH 7.5

## O=C[C@H](O)[C@@H](O)[C@H](O[C@H]1O[C@H](CO)[C@@H](O)[C@H](O)[C@H]1O)[C@H](O)CO [aldehyde intermediate]
[1]; [3]
  Kd: 0.019 nM
  koff: 1.3 ± 0.5 s⁻¹
  kon: 6.9 ± 2.8 × 10^10 M^−1s^−1

## OC[C@H]1O[C@H](O[C@H]2[C@H](O)[C@@H](O)[C@H](O)O[C@@H]2CO)[C@H](O)[C@@H](O)[C@@H]1O [Maltose, maltose]
[1]; [4]
  frequency of state 1: 4.28 ± 0.57 s⁻¹
  frequency of state 2: 0.18 ± 0.17 s⁻¹
[1]; [5]
  frequency of state 1: 5.59 ± 0.89 s⁻¹
  frequency of state 2: 0 s⁻¹
[1]; after the depletion of α-maltose
  frequency of state 3: 0.01 ± 0.02 s⁻¹
[1]; before the depletion of α-maltose
  frequency of state 3: 0.05 ± 0.04 s⁻¹
[1]; [6]
  residual current, state 0: 56.5 ± 0.4%
  residual current, state 1: 54.0 ± 0.4%
  residual current, state 2: 52.0 ± 0.4%
  residual current, state 3: 51.1 ± 0.4%

## OC[C@H]1O[C@H](O[C@H]2[C@H](O)[C@@H](O)[C@@H](O[C@H]3[C@H](O)[C@@H](O)[C@@H](O[C@H]4[C@H](O)[C@@H](O)C(O)O[C@@H]4CO)O[C@@H]3CO)O[C@@H]2CO)[C@H](O)[C@@H](O)[C@@H]1O (some centres unmarked) [maltotetraose]
[1]; −80 mV
  current signal of trapped MBP on addition of the sugar: three ligand-bound current levels similar to those of maltose and maltotriose

## OC[C@H]1O[C@H](O[C@H]2[C@H](O)[C@@H](O)[C@@H](O)O[C@@H]2CO)[C@H](O)[C@@H](O)[C@@H]1O [α-maltose]
[2]
  rate constant of spontaneous interconversion between α-maltose and β-maltose: ~ 0.009 min^−1

## OC[C@H]1O[C@@](CO)(O[C@H]2O[C@H](CO)[C@@H](O)[C@H](O)[C@H]2O)[C@@H](O)[C@@H]1O [sucrose]
[1]; −80 mV
  current signal of trapped MBP on addition of the sugar: no signal change

## OC[C@H]1O[C@@H]2O[C@H]3[C@H](O)[C@@H](O)[C@@H](O[C@H]4[C@H](O)[C@@H](O)[C@@H](O[C@H]5[C@H](O)[C@@H](O)[C@@H](O[C@H]6[C@H](O)[C@@H](O)[C@@H](O[C@H]7[C@H](O)[C@@H](O)[C@@H](O[C@H]8[C@H](O)[C@@H](O)[C@@H](O[C@H]1[C@H](O)[C@H]2O)O[C@@H]8CO)O[C@@H]7CO)O[C@@H]6CO)O[C@@H]5CO)O[C@@H]4CO)O[C@@H]3CO [β-cyclodextrin]
[1]; −80 mV
  current signal of trapped MBP on addition of the sugar: one major current level similar to state 1 of maltose

## maltotriose
[1]; −80 mV
  current signal of trapped MBP on addition of the sugar: four states that were almost identical to the states seen with maltose
[1]; state 1, β anomer, −80 mV, 150 mM NaCl, 15 mM Tris-HCl, pH 7.5
  Kd: 120 nM
[1]; [7]
  koff: 4.8 ± 0.3 s⁻¹
  kon: 40.8 ± 0.1 µM⁻¹ s⁻¹
[1]; state 1 versus state 2
  association rate of major β-anomer binding state relative to α-anomer: more than 3 times
[1]; [8]
  Kd: 240 ± 10 nM
  koff: 1.6 ± 0.1 s⁻¹
  kon: 6.6 ± 0.1 µM⁻¹ s⁻¹
[1]; [9]
  Kd: 380 ± 20 nM
  koff: 1.9 ± 0.4 s⁻¹
  kon: 5.0 ± 0.2 µM⁻¹ s⁻¹
MBP
  Kd: 160 to 700 nM
